Measurements taken from patent US7335756B2, “Retinoic acid metabolizing cytochrome P450” (Cytochroma Inc., priority 2001, dated 2008).
Where “and” joins values, the source holds several entries; their conditions need not be identical. Equal values may be shown once. Read-outs that look alike come from different tables or passages of the source.

How the values were obtained:
P450RAI-3 [1] = target: T1, P450RAI-3 (Homo sapiens, UniProt Q6V0L0, F447L); test: LC/MS analysis of ATRA and 9-cis-RA metabolism in Hela-P450RAI-3 stable cells; conditions: 5 hours
T1 sequence (Q6V0L0 1-522 F447L): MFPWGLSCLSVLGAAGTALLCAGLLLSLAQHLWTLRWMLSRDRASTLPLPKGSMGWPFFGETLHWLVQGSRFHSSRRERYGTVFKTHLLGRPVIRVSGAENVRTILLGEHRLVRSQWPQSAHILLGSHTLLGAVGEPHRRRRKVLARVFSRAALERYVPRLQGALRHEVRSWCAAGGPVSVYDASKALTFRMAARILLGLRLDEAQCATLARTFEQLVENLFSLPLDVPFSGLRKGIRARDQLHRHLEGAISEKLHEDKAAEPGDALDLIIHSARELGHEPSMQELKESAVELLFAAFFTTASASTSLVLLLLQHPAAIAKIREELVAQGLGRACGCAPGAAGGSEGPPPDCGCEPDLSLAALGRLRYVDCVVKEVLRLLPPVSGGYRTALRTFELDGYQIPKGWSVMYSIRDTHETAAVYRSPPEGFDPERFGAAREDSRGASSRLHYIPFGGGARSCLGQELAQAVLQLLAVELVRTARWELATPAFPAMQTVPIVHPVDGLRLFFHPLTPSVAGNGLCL
Description: After 5 hours incubation at 37° C., cells were acidified with acetic acid and total retinoids were extracted using Ethyl acetate method. The organic upper layer was pooled and evaporated in speed-vacuum, and dried residues were dissolved in HPLC mobile solvent and analyzed in LC/MS.
The HPLC system consisted of a waters alliance 2690 separations module. Chromatography was obtained on an Eclipse X DB-C18 reverse phase column (5 um, 2.1×150 mm from HP). A gradient elution program was used using acetonitrile, water and 10% acetic acid. The flow was held at 0.2 ml/min.
Mass Spectrometry condition used for this work consisted of a Micro-mass Quatro Ultima Tandem triple quadruple mass spectrometer equipped with electrospray interface (ESI) and operated in a negative mode.

CYP26-B [2] = target: T2, CYP26-B (Homo sapiens, UniProt Q9NR63); test: [3H]-RA-metabolism inhibition in Sf9-Bac-CYP26-B insect microsomes; format: biochemical; conditions: at much higher concentrations
T2 sequence (Q9NR63 1-512): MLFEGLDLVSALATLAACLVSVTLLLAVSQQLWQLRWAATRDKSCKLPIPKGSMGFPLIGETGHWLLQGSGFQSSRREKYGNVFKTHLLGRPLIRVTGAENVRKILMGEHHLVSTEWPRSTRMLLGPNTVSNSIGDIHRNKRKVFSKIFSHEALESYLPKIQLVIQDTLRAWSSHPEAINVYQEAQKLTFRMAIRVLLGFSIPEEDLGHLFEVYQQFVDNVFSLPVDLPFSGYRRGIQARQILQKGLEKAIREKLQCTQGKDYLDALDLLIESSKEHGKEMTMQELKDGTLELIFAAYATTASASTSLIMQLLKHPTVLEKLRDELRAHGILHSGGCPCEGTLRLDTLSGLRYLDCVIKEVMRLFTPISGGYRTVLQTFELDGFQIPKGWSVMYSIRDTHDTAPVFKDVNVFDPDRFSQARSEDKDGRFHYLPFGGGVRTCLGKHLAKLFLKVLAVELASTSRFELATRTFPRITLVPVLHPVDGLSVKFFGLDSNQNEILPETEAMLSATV
Description: (§1) RA-metabolism activity was assessed using RA-metabolism microsomes-based assay and Bligh Dyer extraction as follows: Using an automatic repeating-pipette, gently thawed and homogenized microsomes were plated in a 48-well plate in final volume of 150 μl of storage buffer containing 0.5 mg/ml BSA. At indicated concentration 2 μl of compound solution was added to the assay and 2 μl of DMSO was added to MS control (quadruplet) and No-MS control. 50 μl of [^3H]-RA solution (30,000 cpm, 2 nM final concentration) was added. […] After 1-hour incubation the reaction was stopped by adding 5 μl of 10% acetic acid. Organic and aqueous soluble radio-labelled metabolites were extracted using the Bligh-Dyer procedure. Saturated activity obtained in presence of NADPH at 5 μg of microsomes, FIG. 14.

P450RAI-3 [3] = target: T1, P450RAI-3; test: ATRA / 9-cis-RA metabolism in pcDNA-P450RAI-3 transfected Cos-1 cells (Bligh-Dyer, HPLC); format: cell-based; design: expressed in transfected cells; host or cells: COS-1 (transient, pcDNA-P450RAI-3, Fugene); conditions: 2 nM radio-labeled substrate, 3 hours
Description: Mammalian Cos-1 cells were transfected with either pcDNA-P450RAI-3 or pcDNA-control vector using Fugene™ (Roche diagnostic) according to the manufacturers directions. After 48 hours post-tranfection, cells were washed with PBS and assessed for ATRA-metabolism activity as described Briefly, transfected cells were incubated with radio-labeled ^3[H]-ATRA (18000 cpm, 2 nM) for 3 hours. Organic and Water-soluble metabolites were extracted using Bligh-Dyer procedure and radioactivity counted (FIG. 10).
HPLC analysis of the organic metabolites: the Bligh-Dyer organic button-layer was dried out and residues were suspended in HPLC solvent and then analyzed by HPLC as described in [White et al, PNAS, vol 97, pg 6403-6408], FIG. 11.
Mammalian Cos-1 cells were transfected with either pcDNA-P450RAI-3 or pcDNA-control vector according to the manufacturers directions using Fugene (Roche). After 48 hours post-tranfection, cells were washed with PBS and assessed for 9-cis-RA-metabolism activity as described using Bligh-Dyer procedure. Briefly, transfected cells were incubated with radio-labeled ^3[H]-9-cis-RA (38000 cpm, 2 nM) for 3 hours. Organic and Water-soluble metabolites were extracted using Bligh-Dyer procedure and radioactivity counted, FIG. 19.

CYP26-B [4] = target: T2, CYP26-B; test: ATRA and 9-cis-RA binding assay, CYP26-B microsomes; design: made in house; host or cells: HeLa cells stably expressing CYP26-B, microsomal fraction; conditions: substrate 0.05 nM to 1000 nM, linear, Kd not determinable
P450RAI-3 [5] = target: T1, P450RAI-3; test: [3H]-RA-metabolism inhibition, transient Cos-P450RAI-3 cell-based assay; design: expressed in transfected cells; host or cells: COS-1 (transient, pcDNA-P450RAI-3, Fugene); conditions: at lower concentrations
Description: (§2) The purpose of these experiments is to determine the specific substrates for P450RAI-3. […] The RA metabolism reaction was started by the addition of 50 ul of [^3H]-RA solution (20000 cpm, 2 nM final concentration). Cells were incubated for 3 hours in a humidified CO2 incubator at 37 degrees Celsius. The reaction was stopped by the addition of 5 ul of 10% acetic acid. Organic and aqueous soluble radio-labelled metabolites were extracted using the Bligh-Dyer procedure.

P450RAI-3 [6] = target: T1, P450RAI-3; test: ATRA and 9-cis-RA binding assay, Sf9-Bac-P450RAI-3 insect microsomes; conditions: for Kd: Table 4 prints no unit
CYP26-A = target: T3, CYP26-A (Homo sapiens, UniProt O43174, E104D/H105D/L421A/M420S); test: 9-cis-RA binding assay, CYP26-A; conditions: substrate 0.05 nM to 1000 nM, linear, Kd not determinable
T3 sequence (O43174 1-497 E104D/H105D/M420S/L421A): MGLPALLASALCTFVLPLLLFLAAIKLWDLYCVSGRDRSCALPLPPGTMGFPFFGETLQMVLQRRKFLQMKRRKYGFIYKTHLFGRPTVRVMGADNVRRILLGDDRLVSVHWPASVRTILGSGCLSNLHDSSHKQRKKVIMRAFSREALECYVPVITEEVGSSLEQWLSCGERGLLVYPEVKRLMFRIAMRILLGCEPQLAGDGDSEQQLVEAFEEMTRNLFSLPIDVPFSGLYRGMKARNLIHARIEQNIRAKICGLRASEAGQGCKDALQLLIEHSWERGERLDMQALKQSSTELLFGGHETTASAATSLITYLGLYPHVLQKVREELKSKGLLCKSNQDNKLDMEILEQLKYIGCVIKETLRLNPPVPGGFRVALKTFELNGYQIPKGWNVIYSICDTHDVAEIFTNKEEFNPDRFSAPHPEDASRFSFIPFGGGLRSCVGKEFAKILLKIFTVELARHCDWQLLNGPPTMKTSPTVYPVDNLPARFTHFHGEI

CYP26-B [7] = target: T2, CYP26-B; test: [3H]-RA-metabolism inhibition, transient Cos-CYP26-B cell-based assay; conditions: at lower concentrations
CYP26-B [8] = target: T2, CYP26-B; test: [3H]-RA-metabolism inhibition in mammalian microsomes from stable Hela-CYP26-B cells; format: biochemical; design: made in house; host or cells: HeLa cells stably expressing CYP26-B, microsomal fraction
Description: as §1
(§3) Microsomes prepared from either stable Hela-CYP26-B or transient P450RAI-3-transfected Cos cells were used.

P450RAI-3 [9] = target: T1, P450RAI-3; test: [3H]-RA-metabolism inhibition in Sf9-Bac-P450RAI-3 insect microsomes; format: biochemical; conditions: 2 nM [3H]-RA, NADPH, 1 hour, read-out: ID50 (nM) Sf9-P450RAI-3
Description: Microsomes from P450RAI-3 and CYP26B infected Sf-9 cells were made as follows: exponentially growing cells were harvested, washed with ice-cold PBS, counted then homogenized and sonicated in lysis buffer containing protease inhibitors cocktail (10^8 cells par 5 ml lyses buffer). Since P450RAI-3 is a microsomal cytochrome, it preferably uses NADPH cytochromic P450 reductase and a flavoprotein for activity. The microsomes were isolated by differential centrifugations (10 min at 800×g, than 10 min at 10,000×g and finally the postmitichondirial supernatant was centrifuged at 100,000×g for 60 min using ultracentrifuge (Beckman). The microsomal pellet was isolated and homogenized gently in the storage buffer containing protease inhibitors cocktail. Protein concentration in the microsomal preparation was determined using a […] reaction assay kit with BSA as standards (Pierce). The absorbance at 562 nm of standards (BSA at 1, 0.5, 0.25, 0.125, and 0.0625 mg/ml) and 3 dilutions of microsomes samples (⅕, 1/10 and 1/20) was determined using an automatic microplate reader (μQuant, BioTek instruments Inc.). The protein concentration directly calculated by the software (KCJunior). […] Microsomes were assessed for P450 content by carbon monoxide assay and total P450 content was determined at 3 nmol/ml. […]

P450RAI-3 [10] = target: T1, P450RAI-3; test: [3H]-RA-metabolism inhibition in mammalian microsomes from transient P450RAI-3-transfected Cos cells; format: biochemical; design: expressed in transfected cells; host or cells: COS-1 (transient, pcDNA-P450RAI-3, Fugene)
Description: RA-metabolism activity was assessed using RA-metabolism microsomes-based assay and Bligh Dyer extraction as follows: Using an automatic repeating-pipette, gently thawed and homogenized microsomes were plated in a 48-well plate in final volume of 150 μl of storage buffer containing 0.5 mg/ml BSA. At indicated concentration 2 μl of compound solution was added to the assay and 2 μl of DMSO was added to MS control (quadruplet) and No-MS control. 50 μl of [^3H]-RA solution (30,000 cpm, 2 nM final concentration) was added. The microsomes assay with the compounds and the [^3H]-ATRA were incubated first for 10 min at 37° C., and then the reaction started by adding 20 μl of NADPH solution (or 1 mM final). After 1-hour incubation the reaction was stopped by adding 5 μl of 10% acetic acid. Organic and aqueous soluble radio-labelled metabolites were extracted using the Bligh-Dyer procedure. Saturated activity obtained in presence of NADPH at 5 μg of microsomes, FIG. 14.
as §3

P450RAI-3 [11] = target: T1, P450RAI-3; test: [3H]-RA-metabolism inhibition (substrate competition) in P450RAI-3 stable transfected Hela cells; format: cell-based; design: expressed in transfected cells; conditions: 2 nM [3H]-RA
Description: as §2

## CC1=C(/C=C/C(C)=C\C=C\C(C)=C\C(=O)O)C(C)(C)CCC1 [9-cis-RA, 9-cis-retnoic acid]
P450RAI-3 [1]
  metabolites formed by P450RAI-3: hydroxy and oxo-metabolites
CYP26-B [2]
  competition for CYP26-B: very weak 9-cis-RA competition
P450RAI-3 [3]
  metabolism by P450RAI-3: converted 9-cis-RA to the hydoxy and oxo-metabolites and to more polar water-soluble metabolites
CYP26-B [4]
  binding to CYP26-B: weak binding
P450RAI-3 [5]
  competition / inhibition of P450RAI-3: competed only for P450RAI-3
P450RAI-3 [6]; read-out: Kd, substrate binding to P450RAI-3, insect microsomes, nM
  Kd: 69 nM
P450RAI-3 [6]; substrate 0.05 nM to 1000 nM
  binding to P450RAI-3 microsomes: Very good binding
CYP26-A
  binding to CYP26-A: weak binding

## CC1=C(/C=C/C(C)=C/C=C/C(C)=C\C(=O)O)C(C)(C)CCC1 [13-cis-RA]
CYP26-B [7]
  competition / inhibition of CYP26-B: not a substrate
CYP26-B [8]
  competition for CYP26B: did not compete at lower concentrations
P450RAI-3 [5]
  competition / inhibition of P450RAI-3: not a substrate

## CC(=O)N1CCN(c2ccc(OCC3COC(Cn4ccnc4)(c4ccc(Cl)cc4Cl)O3)cc2)CC1 (stereo not drawn) [Ketoconazole, ketoconazole]
CYP26-B [7]
  competition / inhibition of CYP26-B: inhibited
P450RAI-3 [9]
  IC50: > 10000 nM
P450RAI-3 [5]
  competition / inhibition of P450RAI-3: weak inhibitor
P450RAI-3 [10]; read-out: ID50 (nM) P450RAI-3
  IC50: 72000 nM
P450RAI-3 [10]; read-out: ID50 P450RAI-3
  IC50: 70000 nM
P450RAI-3 [11]; read-out: ID50, competition for P450RAI-3 [3H]-RA metabolism
  IC50: 70 µM
P450RAI-3 [6]; Kd, competition of ATRA binding to P450RAI-3, ketoconazole up to 100 μM, μM
  Kd: 70500 nM and 75000 nM
P450RAI-3 [6]; read-out: inhibition of ATRA binding to P450RAI-3
  inhibition at 10 µM: 15%

## CC1=C(/C=C/C(C)=C/C=C/C(C)=C/C=O)C(C)(C)CCC1 [Retinal]
P450RAI-3 [11]
  substrate for CYP26-C: not substrates

## CC1=C(/C=C/C(C)=C/C=C/C(C)=C/CO)C(C)(C)CCC1 [Retinol]
P450RAI-3 [11]
  substrate for CYP26-C: not substrates
